Among the data in patent publication US9944589B2, “Cycloproplyamine derivatives useful as inhibitors of histone demethylases KDM1A” (Istituto Europeo de Oncologia S.r.L., priority 2012, dated 2018) are IC50 values, retold here.

Several values for one entry are separate records, joined by “and”; a condition that tells them apart may be missing. Equal entries are not always repeated. Structures can show the parent of a compound that is named as a salt. Where two headings read alike, the source gives them in different places.

Test [1] relates to Acute promyelocytic leukemia NB4 cells. In words: Cell growth (CellTiter-Fluor cell viability assay). Format: cell-based. To be noted: Homo sapiens, NB-4, 48 h, range classes, read-out: IC50 [μM], cell growth inhibitory assay. From the text:
CellTiter-Flor® (Promega) is as a nonlytic, single-reagent-addition fluorescence assay that measures the relative number of living cells in a culture population after experimental manipulation. The CellTiter-Fluor™ Cell Viability Assay measures the conserved and constitutive protease activity within live cells and therefore acts as a marker for cell viability.
Acute promyelocytic leukemia NB4 cells, (obtained from the Deutsche Sammlung von Mikroorganismen and Zellkulturen) in exponential growth, were incubated for 48 h with different concentrations of the inhibitors. After 48 h a volume of CellTiter-Fluor® Reagent equal to one fifth of volume of cell culture medium was added. The content was mixed and incubates for at least 90 min at 37° C. degree to obtain a stable signal. The fluorescence was recorded using an excitation wavelength of 360 nm and an emission at 535 nm. The IC50 was calculated using GraphPad Software.

Test [2] deals with T1, human recombinant KDM1A (LSD1)/CoRest (Homo sapiens, UniProt O60341).
T1 construct: made in house; host or cells: E. coli
In words: Assay of enzyme inhibition of KDM1A (LSD1), Amplex UltraRed/peroxidase coupled. Conditions: 15 min preincubation, 4.5 μM mono-methylated H3-K4 peptide, range classes. The class given is biochemical. As for the experimental part: The experiments were performed using a mono-methylated H3-K4 peptide containing 21 amino acids (custom synthesis done by Thermo Scientific) as substrate and in a 50 mM TRIS, pH 8, 0.05 mg/ml BSA buffer.
The demethylase activity was estimated under aerobic conditions and at RT by measuring the release of H2O2 produced during the catalytic process by the Amplex® UltraRed detection system coupled with peroxidase assay. Briefly, a fixed amount of KDM1A/CoRest complex was incubated at RT for 15 minutes in the absence and/or the presence of various concentrations of inhibitor (e.g. from 0 to 100 μM, depending on the inhibitor strength) and of Amplex® UltraRed detection system coupled with peroxidase assay. The inhibitors were tested twice in duplicates at each concentration. […] The conversion of the Amplex® Ultra Red reagent to resorufin was monitored in continuous by fluorescence (excitation at 540 nm, emission at 590 nm) using a microplate reader (Infinite 200, Tecan). Arbitrary units were used to measure the level of H2O2 produced in the absence and/or in the presence of inhibition. The maximum demethylase activity of KDM1A/CoRest was obtained in the absence of inhibitors and corrected for background fluorescence in the absence of KDM1A/CoRest. The IC50 was calculated using GraphPad Software.

Setting [3] is: read-out: IC50 [μM], KDM1A inhibition assay.
Where [4] appears, read: IC50 [μM], KDM1A inhibition assay.

One may read the IC50 as the concentration that gives 50% inhibition.

For `N[C@]1(Cc2ccc3ccccc3c2)C[C@H]1c1ccccc1` (relative stereo) [Example A-15, trans-1-(2-naphthylmethyl)-2-phenyl-cyclopropanamine hydrochloride], the IC50 in test [1] was at most 10 µM.

As to `CC[C@]1(N)C[C@@H]1c1ccccc1NC(=O)c1cccc(NC(=O)OCc2ccccc2)c1` (relative stereo) [Example A-32, benzyl N-[3-[[2-[(trans)-2-amino-2-ethyl-cyclopropyl]phenyl]carbamoyl]phenyl]carbamate hydrochloride], the IC50 in test [1] was in the range of 10 to 50 µM.

Consider `N[C@]1(Cc2ccc3ccccc3c2)C[C@H]1c1ccc(NC(=O)c2cccc(NC(=O)OCc3ccccc3)c2)cc1` (relative stereo) [Example A-45, benzyl N-[3-[[4-[(trans)-2-amino-2-(2-naphthylmethyl)cyclopropyl]phenyl]carbamoyl]phenyl] carbamate hydrochloride], for which the IC50 in test [1] is at most 10 µM.

Regarding `N[C@]1(CCc2ccccc2)C[C@H]1c1ccccc1` (relative stereo) [Example A-11, trans-1-phenethyl-2-phenyl-cyclopropanamine hydrochloride], in test [1], the IC50 lay within 10 to 50 µM.

With `CC[C@@]1(N)C[C@H]1c1ccc(NC(=O)c2ccc(NC(=O)OCc3ccccc3)cc2)cc1` (relative stereo) [Example A-38, benzyl N-[4-[[4-[(trans)-2-amino-2-ethyl-cyclopropyl]phenyl]carbamoyl]phenyl]carbamate hydrochloride], the IC50 in test [1] was at most 10 µM.

With `C[C@@]1(NCc2nnc(N)o2)C[C@H]1c1ccccc1` (relative stereo) [Example C-32, 5-[[[trans-1-methyl-2-phenyl-cyclopropyl]amino]methyl]-1,3,4-oxadiazol-2-amine], the 50% inhibitory concentration (IC50) in test [2] (setting [3]) fell in the range of 0.1 to 1 µM.

As for `N[C@]1(Cc2ccccc2)C[C@H]1c1ccc(Cl)cc1` (relative stereo) [Example A-61, trans-1-benzyl-2-(4-chlorophenyl)cyclo-propanamine hydrochloride], in test [2] (setting [3]), the IC50 was in the range of 0.1 to 1 µM.

As to `CC[C@@]1(N)C[C@H]1c1cccc(F)c1` (relative stereo) [Example A-20, trans-1-ethyl-2-(3-fluorophenyl)cyclopropanamine hydrochloride], the IC50 in test [2] (setting [4]) is below 0.1 µM.

`CN1CCN(C(=O)CN[C@]2(C)C[C@H]2c2ccccc2)CC1` (relative stereo) [Example C-27, 2-[[trans-1-methyl-2-phenyl-cyclopropyl]amino]-1-(4-methylpiperazin-1-yl)ethanone dihydrochloride]: the IC50 in test [2] (setting [3]) was below 0.1 µM.

Regarding `C[C@@]1(NCc2ccc3c(c2)OCCO3)C[C@H]1c1ccccc1` (relative stereo) [Example C-21, trans-N-(2,3-dihydro-1,4-benzodioxin-6-ylmethyl)-1-methyl-2-phenyl-cyclopropanamine 2,2,2-trifluoroacetic acid], the IC50 in test [2] (setting [3]) was 0.1 to 1 µM.

`CC[C@@]1(N)C[C@H]1c1ccc(NC(=O)Cc2cccc3ccccc23)c(F)c1` (relative stereo) [Example A-94, N-[4-[trans-2-amino-2-ethyl-cyclopropyl]-2-fluoro-phenyl]-2-(1-naphthyl) acetamide hydrochloride]: the IC50 in test [2] (setting [3]) is below 0.1 µM.

On to `CC[C@@]1(N)C[C@H]1c1ccccc1F` (relative stereo) [Example A-25, trans-1-ethyl-2-(2-fluorophenyl)cyclopropanamine hydrochloride], for which the IC50 in test [2] (setting [3]) fell in the range of 0.1 to 1 µM.

For the compound `C[C@@]1(NCc2cnc(N)nc2)C[C@H]1c1ccccc1` (relative stereo) [Example C-19, 5-{[(trans-1-methyl-2-phenyl-cyclopropyl)amino]methyl} pyrimidin-2-amine dihydrochloride], in test [2] (setting [3]), the IC50 lay within 0.1 to 1 µM.

In the case of `CC[C@@]1(N)C[C@H]1c1cccc(OC)c1` (relative stereo) [Example A-23, trans-1-ethyl-2-[3-methoxyphenyl]cyclopro-panamine hydrochloride], in test [2] (setting [3]), the IC50 is 0.1 to 1 µM.

Take `N[C@]1(Cc2ccc3ccccc3c2)C[C@H]1c1ccc(Cl)cc1` (relative stereo) [Example A-55, trans-2-(4-chlorophenyl)-1-(2-naphthylmethyl)cyclo-propanamine hydrochloride]: the IC50 in test [2] (setting [3]) lay within 0.1 to 1 µM.

For the compound `CC[C@@]1(NCCN2CCCCC2)C[C@H]1c1ccccc1` (relative stereo) [Example C-31, trans-1-Ethyl-2-phenyl-N-[2-(1-piperidyl)ethyl]cyclopropanamine dihydrochloride], the 50% inhibitory concentration (IC50) in test [2] (setting [3]) fell in the range of 0.1 to 1 µM.

Regarding `CC[C@@]1(N)C[C@H]1c1cccc(Cl)c1` (relative stereo) [Example A-21, trans-1-ethyl-2-(3-chlorophenyl)-cyclopropanamine hydrochloride], in test [2] (setting [4]), the IC50 is below 0.1 µM.

Regarding `N[C@]1(c2ccccc2)C[C@H]1c1ccc(NC(=O)Cc2cccc3ccccc23)cc1` (relative stereo) [Example A-104, N-[4-(trans-2-amino-2-phenyl-cyclopropyl)phenyl]-2-(1-naphthyl) acetamide hydrochloride], the IC50 in test [2] (setting [3]) was below 0.1 µM.

With `CC[C@@]1(N)C[C@H]1c1ccc(-n2cc(-c3ccccc3)nn2)cc1` (relative stereo) [Example A-131, trans-1-Ethyl-2-[4-(4-phenyltriazol-1-yl)phenyl]cyclopropanamine hydrochloride], the IC50 in test [2] (setting [3]) was below 0.1 µM.

With `CN1CCN(C(=O)CN[C@@]2(C)C[C@@H]2c2ccccc2)CC1` [Example C-3, 2-[[(1S,2R)-1-methyl-2-phenyl-cyclopropyl]amino]-1-(4-methylpiperazin-1-yl)ethanone dihydrochloride], the IC50 in test [2] (setting [3]) is < 0.1 µM and 1 to 5 µM.

Turning to `CC[C@@]1(N)C[C@H]1c1cccc(Br)c1` (relative stereo) [Example A-22, trans-1-ethyl-2-(3-bromophenyl)-cycloproanamine hydrochloride], the IC50 in test [2] (setting [4]) is below 0.1 µM.

In the case of `CN1CCN(c2ccc(C(=O)Nc3ccc([C@@H]4C[C@]4(N)c4ccccc4)cc3)cc2)CC1` (relative stereo) [Example A-110, N-[4-(trans-2-amino-2-phenyl-cyclopropyl)phenyl]-4-(4-methylpiperazin-1-yl)benzamide hydrochloride], the IC50 in test [2] (setting [3]) is below 0.1 µM.

For the compound `CC(=O)Nc1ccc([C@@]2(N)C[C@H]2c2ccccc2)cc1` (relative stereo) [Example D-6, N-[4-[trans-1-amino-2-phenyl-cyclopropyl]phenyl]acetamide hydrochloride], in test [2] (setting [3]), the IC50 lay within 0.1 to 1 µM.

As to `N[C@]1(c2ccccc2)C[C@H]1c1ccc(NC(=O)Cc2ccc3ccccc3c2)cc1` (relative stereo) [Example A-107, N-[4-(trans-2-amino-2-phenyl-cyclopropyl)phenyl]-2-(2-naphthyl) acetamide 2,2,2-trifluoroacetic acid], the IC50 in test [2] (setting [3]) was below 0.1 µM.

In the case of `N[C@]1(CCc2ccccc2)C[C@H]1c1ccc(Br)cc1` (relative stereo) [Example A-62, trans 2-(4-bromophenyl)-1-phenethyl-cyclopropanamine 2,2,2-trifluoroacetic acid], the IC50 in test [2] (setting [3]) is 0.1 to 1 µM.

`N[C@]1(c2ccccc2)C[C@H]1c1ccc(NC(=O)c2cccc(N3CCOC3=O)c2)cc1` (relative stereo) [Example A-111, N-[4-(trans-2-amino-2-phenyl-cyclopropyl)phenyl]-3-(2-oxooxazolidin-3-yl)benzamide hydrochloride]: the IC50 in test [2] (setting [3]) is below 0.1 µM.
